Data set [1] is described as follows: doxorubicin release from glucomannan alginate blends (dialysis, absorbance at 485 nm). It counts as physicochemical. As to conditions: from sulfonated glucomannan calcium alginate blend; Hepes Buffered Saline with 30% FBS, 37° C., pH 7.4; n=10.
Protocol: For examination of doxorubicin release from glucomannan alginate blends, sulfated glucomannan as described above was added 1:1 with PRONOVA UP MVM alginate from FMC Biopolymers (Haugesund, Norway), and at a concentration of 2% w/v to a standard nonionic contrast agent (Iohexyl, Omnipaque 300, Amersham Health, Princeton, N.J.). To this 6 mg doxorubicin was added and the mixture was polymerized in 100 mM calcium chloride. Dox loaded hydrogels were then placed into dialysis tubing (molecular weight cut-off of 10,000 DA) sealed at both ends with clips. Dialysis tubing was then placed into a beaker containing 1000-fold excess Hepes Buffered Saline with 30% FBS and incubated at 37° C. and pH 7.4. A doxorubicin standard curve ranging from 0 to 6 mg/mL drug was prepared in saline. From these standard curves the percentage of total drug release was calculated. Doxorubicin release was monitored by measuring the time dependence of the absorbance at 485 nm.
The nature of data set [2]: dissolution of self-gelling alginate gel by alginate lyase. Format: biochemical. The settings on record: 0.5 mL of alginate lyase added to 5 mL gel (1.5% calcium alginate, 1% sodium alginate) after 1 hour gelling. From the text: In embodiments, a self-gelling alginate can be modified to contain an optical agent to assess localization. For example, the FDA approved optical agent inodcyanine green has used at a concentration of 0.005% to assess localization after injection with infrared. Gels can be made by mixing a solution of sodium alginate (Protanal SF 120) and a calcium alginate dispersion (Protaweld TX 120). The amount of calcium alginate can be 1.5%, and the amount of sodium alginate can be 1%. The solution and dispersion are mixed and 5 mL of the gel injected into a 50 mL conical tube. The sample was left to gel for 1 hour.

As to `COc1cccc2c1C(=O)c1c(O)c3c(c(O)c1C2=O)C[C@@](O)(C(=O)CO)C[C@@H]3O[C@H]1C[C@H](N)[C@H](O)[C@H](C)O1` [doxorubicin], the doxorubicin release profile result in data set [1] is reported as “eight”.

B1: alginate lyase: enzymes that catalyze the degradation of alginate (protein, listed as Pseudomonas aeruginosa)
chain: MKTSHLIRIALPGALAAALLASQVSQAADLVPPPGYYAAVGERKGSAGSCPAVPPPYTGSLVFTSKYEGSDSARATLNVKAEKTFRSQIKDITDMERGATKLVTQYMRSGRDGDLACALNWMSAWARAGALQSDDFNHTGKSMRKWALGSLSGAYMRLKFSSSRPLAAHAEQSREIEDWFARLGTQVVRDWSGLPLKKINNHSYWAAWSVMSTAVVTNRRDLFDWAVSEFKVAANQVDEQGFLPNELKRRQRALAYHNYALPPLAMIAPFAQVNGVDLRQENHGALQRLAERVMKGVDDEETFEEKTGEDQDMTDLKVDNKYAWLEPYCALYRCEPNACSRPKKDREPFNSFRLGGEVTRVFSREGGS
Turning to B1, in data set [2], the “dissolution of hardened alginate gel” value is on record as “complete dissolution”.
